Columns and labels:
[1] = target: T1, STK4 (Homo sapiens (Human), UniProt Q13043); test: ADP-Glo kinase assay, STK4; assay type: biochemical
How it was run: (§1)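 ADP-Glo readout at 50 μM ATP with 50 ng full-length enzyme: STK4 on 300 μg/mL Axltide substrate, STK3 on 250 μg/mL myelin basic protein. Done as three independent runs in triplicate.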

[2] = target: T2, STK3 (Homo sapiens (Human), UniProt Q13188); test: ADP-Glo kinase assay, STK3; assay type: biochemical; details: ADP-Glo, 50 μM ATP; read-out: STK3 IC50
How it was run: as §1

[3] = system: phosphorylated MOB1 (Thr35) in HEK293 cells; test: Western blot analysis of p-MOB1 in HEK293 cells; assay type: cell-based; details: 10 μM, 4 h, then H2O2 50 μM 2 h, vs DMSO
Experimental: Cells were harvested by pipetting, pelleted by centrifugation at 1400 rpm for 4 min, and lysed in RIPA buffer for 10 min at room temperature. The lysates were centrifuged at 12,000×g at room temperature (RT) for 10 min and the supernatants were recovered. Protein concentrations in the supernatants were determined using a BCA assay (Pierce/Thermo Scientific). Proteins were separated on NovexTM WedgeWellTM 4-20% Tris-Glycine Gels (Invitrogen; Carlsbad, CA, USA) and transferred to polyvinylidene difluoride (Trans-Blot® TurboTM Transfer Pack) membranes. […] Danvers. MA. USA). Blots were rinsed three times with TBST and then incubated in 5% nonfat milk containing horseradish peroxidase (HRP)-conjugated mouse anti-rabbit IgG secondary Ab (Cell Signaling Technology) for 1 h at RT. Blots were washed three times with TBST, developed using Pierce® ECL Western Blotting reagent, and imaged and analyzed using with ImageJ software. Quantitative data are expressed as the level of phosphorylated MOB1 normalized to total MOB1. To confirm that the cellular mechanism of action of our inhibitors was through inhibition of Hippo pathway signaling. […] Inhibition of STK3/4 in vitro and in vivo can produce decreased phosphorylation of the Hippo pathway adapter protein MOB1 at […].

[4] = In vivo plasma and liver concentrations, 20 mg/kg intraperitoneal; details: female, C57BL/6J, mouse, ip, 20 mg/kg
Experimental: All animal procedures were approved by the Sanford Burnham Prebys Medical Discovery Institute Institutional Animal Care and Use Committee and were performed according to the NIH guidelines for the Care and Use of Laboratory Animals. Adult female C57BL/6J mice were purchased from Jackson Laboratories and housed with free access to food and water on a 12 h light/dark cycle. Compounds were formulated in 5% DMSO, 10% Tween-80, and 85% H2O and injected intraperitoneally at 10 or 20 mg/kg. Blood samples were collected retro-orbitally at the indicated times and plasma was prepared by centrifugation. Livers were collected post mortem at the indicated times.
For quantification of compound, plasma samples were extracted with acetonitrile: water 4:1 with 0.1% formic acid containing indomethacin as an internal standard. Samples were centrifuged and the supernatants were diluted with acetonitrile: water and analyzed by LC-MS/MS using a Shimadzu Nexera X2 High-performance liquid chromatography (HPLC) (Shimadzu Scientific Instruments: Kyoto, Japan) coupled to an AB Sciex 6500 QTRAP (AB Sciex LLC: Toronto, Canada).
Adult female C57BL/6 mice (n=3/group) were intraperitoneally injected with vehicle or test compound (20 mg/kg), and blood samples and livers were collected at 30 min and 1 h post-injection, respectively. Plasma concentrations of all 13 compounds were >1.4 μM at 30 min after injection, and 10 compounds had liver concentrations >1.0 μM at 1 h after injection, as measured by LC-MS/MS, with particularly high plasma concentrations obtained with compounds 11 (15.9 μM), 16 (11.6 μM) and 105 (8.7 μM) (Table 5). To evaluate target engagement in vivo, the total and phosphorylated MOB1 levels in livers collected at 1 h post-injection was examined.
Tween 80 and water and were administered to mice by intraperitoneal injection. Blood samples and livers were collected at 30 min and 1 h post-dose, respectively. Plasma concentrations and relative pMOB1 levels were determined by LC-MS/MS and western blot analysis, respectively. (n=3).

[5] = target: T2, STK3; test: NanoBRET intracellular kinase assay, STK3; assay type: cell-based
Experimental: (§2) Full-length STK3, STK4, and LRRK2 kinase was cloned in-frame with a C-terminal NanoLuc-fusion (Promega: Madison, WI, USA) and the plasmid was transfected into HEK293T cells using FuGENE HD (Promega, E2312). […] After 2 h at 37° C. in a 5% CO2 atmosphere, NanoBRET NanoGlo Substrate+Extra-cellular NanoLuc Inhibitor (Promega, N2540) was added, and filtered luminescence was measured on a PHERAstar plate reader (BMG Labtech; Ortenberg, Germany) equipped with a lumi-nescence filter pair (450 nm BP filter (donor) and 610 nm LP filter (acceptor)).
(§3) This assay measured the apparent affinity of test compounds by competitive displacement of the NanoBRET™ tracer, reversibly bound to a NanoLuc® luciferase-kinase fusion in cells. To evaluate potential off-target activity of the inhibitors, the inhibition of LRRK2 in live cells by the STK3/4 inhibitors compounds described herein were measured. […] A 50 nM tracer and these compounds were added to cells and incubated for 2 h.

[6] = target: LRRK2 (Homo sapiens (Human), UniProt Q5S007); test: NanoBRET intracellular kinase assay, LRRK2; assay type: cell-based; details: transfected HEK293 cells, 2 h
Experimental: Full-length STK3, STK4, and LRRK2 kinase was cloned in-frame with a C-terminal NanoLuc-fusion (Promega: Madison, WI, USA) and the plasmid was transfected into HEK293T cells using FuGENE HD (Promega, E2312). After 20 h, transfected cells were mixed with inhibitors and 50 nM NanoBRET Kinase Tracer K10 (Promega) and reseeded at a density of 2× 10^5 cells/mL in Opti-Minimal Essential Medium (MEM) without phenol red (Life Technologies; Carlsbad, CA, USA) in 384-well plates (Greiner 781-207; Kremsmunster, Austria). After 2 h at 37° C. in a 5% CO2 atmosphere, NanoBRET NanoGlo Substrate+Extra-cellular NanoLuc Inhibitor (Promega, N2540) was added, and filtered luminescence was measured on a PHERAstar plate reader (BMG Labtech; Ortenberg, Germany) equipped with a lumi-nescence filter pair (450 nm BP filter (donor) and 610 nm LP filter (acceptor)).
To confirm cellular potency for compounds described herein, the […] were used to detect engagement of STK3 and STK4 in live cells using the NanoBRET™ intracellular kinase assay, marking the first report of a NanoBRET assay for STK3 and STK4. This assay measured the apparent affinity of test compounds by competitive displacement of the NanoBRET™ tracer, reversibly bound to a NanoLuc® luciferase-kinase fusion in cells. To evaluate potential off-target activity of the inhibitors, the inhibition of LRRK2 in live cells by the STK3/4 inhibitors compounds described herein were measured. Cultured HEK293 cells were either transfected with NanoLuc®-STK3 fusion vector, NanoLuc®-STK4 fusion, or with NanoLuc®-LRRK2 vector for 24 h. A 50 nM tracer and these compounds were added to cells and incubated for 2 h. These compounds tested in the assays decreased the NanoBRET™ signal for both STK3 and STK4 at varying potencies and confirming cellular target engagement of STK3/4.

[7] = target: T2, STK3; test: Thermal shift assay (ThermoFluor differential scanning fluorimetry); assay type: binding; details: read-out: ΔTm
Experimental: Temperature-dependent protein unfolding profiles were measured using a Real-Time PCR Mx3005p machine (Stratagene: San Diego, CA, USA). Data evaluation and melting temperature calculation were performed using Protein Thermal Shift™ Software v1.2.
To further evaluate binding of these compounds to STK3/4, differential scanning fluorimetry (protein thermal shift using ThermoFluor technology) assay was used to benchmark the capacity to stabilize the kinase domain. The melting temperature (Tm) of STK3 or STK4 was measured in the presence of vehicle (DMSO) or 6, 11 or 23.

[8] = target: T1, STK4; test: NanoBRET intracellular kinase assay, STK4; assay type: cell-based; details: transfected HEK293 cells, 2 h
Experimental: as §2, §3

[9] = NanoBRET, transfected HEK293 cells, 2 h, read-out: STK3: IC50
[10] = ADP-Glo, 50 μM ATP, read-out: STK4 IC50

T1 sequence (Q13043 whole entry): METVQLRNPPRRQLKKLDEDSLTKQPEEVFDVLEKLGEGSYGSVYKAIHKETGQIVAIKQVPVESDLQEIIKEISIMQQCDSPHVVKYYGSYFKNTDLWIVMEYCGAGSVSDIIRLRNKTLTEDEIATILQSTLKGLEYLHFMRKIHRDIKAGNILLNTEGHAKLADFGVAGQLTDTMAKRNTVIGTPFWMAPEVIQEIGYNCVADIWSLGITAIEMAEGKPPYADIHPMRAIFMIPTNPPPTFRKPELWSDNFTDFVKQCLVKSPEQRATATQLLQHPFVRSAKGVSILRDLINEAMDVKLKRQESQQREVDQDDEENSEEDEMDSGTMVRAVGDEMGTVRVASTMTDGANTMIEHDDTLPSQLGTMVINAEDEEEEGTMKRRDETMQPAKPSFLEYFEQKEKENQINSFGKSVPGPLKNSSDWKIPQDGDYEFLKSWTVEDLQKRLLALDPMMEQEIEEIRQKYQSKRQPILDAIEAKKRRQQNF
T2 sequence (Q13188 whole entry): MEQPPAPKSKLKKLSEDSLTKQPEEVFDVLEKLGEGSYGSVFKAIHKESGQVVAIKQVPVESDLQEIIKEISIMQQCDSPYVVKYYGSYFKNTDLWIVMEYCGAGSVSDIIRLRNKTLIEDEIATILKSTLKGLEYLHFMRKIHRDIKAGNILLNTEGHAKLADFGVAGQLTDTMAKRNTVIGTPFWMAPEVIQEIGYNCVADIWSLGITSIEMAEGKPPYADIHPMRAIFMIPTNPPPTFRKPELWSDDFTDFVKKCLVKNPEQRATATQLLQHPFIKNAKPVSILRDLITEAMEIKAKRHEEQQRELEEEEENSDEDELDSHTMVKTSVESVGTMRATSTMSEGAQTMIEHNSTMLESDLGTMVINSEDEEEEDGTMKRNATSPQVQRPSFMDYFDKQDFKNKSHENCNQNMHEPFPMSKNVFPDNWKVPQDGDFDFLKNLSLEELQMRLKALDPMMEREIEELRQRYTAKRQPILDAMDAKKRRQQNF
Sequence of LRRK2 (Q5S007 whole entry, species assumed, the tested form may be a part): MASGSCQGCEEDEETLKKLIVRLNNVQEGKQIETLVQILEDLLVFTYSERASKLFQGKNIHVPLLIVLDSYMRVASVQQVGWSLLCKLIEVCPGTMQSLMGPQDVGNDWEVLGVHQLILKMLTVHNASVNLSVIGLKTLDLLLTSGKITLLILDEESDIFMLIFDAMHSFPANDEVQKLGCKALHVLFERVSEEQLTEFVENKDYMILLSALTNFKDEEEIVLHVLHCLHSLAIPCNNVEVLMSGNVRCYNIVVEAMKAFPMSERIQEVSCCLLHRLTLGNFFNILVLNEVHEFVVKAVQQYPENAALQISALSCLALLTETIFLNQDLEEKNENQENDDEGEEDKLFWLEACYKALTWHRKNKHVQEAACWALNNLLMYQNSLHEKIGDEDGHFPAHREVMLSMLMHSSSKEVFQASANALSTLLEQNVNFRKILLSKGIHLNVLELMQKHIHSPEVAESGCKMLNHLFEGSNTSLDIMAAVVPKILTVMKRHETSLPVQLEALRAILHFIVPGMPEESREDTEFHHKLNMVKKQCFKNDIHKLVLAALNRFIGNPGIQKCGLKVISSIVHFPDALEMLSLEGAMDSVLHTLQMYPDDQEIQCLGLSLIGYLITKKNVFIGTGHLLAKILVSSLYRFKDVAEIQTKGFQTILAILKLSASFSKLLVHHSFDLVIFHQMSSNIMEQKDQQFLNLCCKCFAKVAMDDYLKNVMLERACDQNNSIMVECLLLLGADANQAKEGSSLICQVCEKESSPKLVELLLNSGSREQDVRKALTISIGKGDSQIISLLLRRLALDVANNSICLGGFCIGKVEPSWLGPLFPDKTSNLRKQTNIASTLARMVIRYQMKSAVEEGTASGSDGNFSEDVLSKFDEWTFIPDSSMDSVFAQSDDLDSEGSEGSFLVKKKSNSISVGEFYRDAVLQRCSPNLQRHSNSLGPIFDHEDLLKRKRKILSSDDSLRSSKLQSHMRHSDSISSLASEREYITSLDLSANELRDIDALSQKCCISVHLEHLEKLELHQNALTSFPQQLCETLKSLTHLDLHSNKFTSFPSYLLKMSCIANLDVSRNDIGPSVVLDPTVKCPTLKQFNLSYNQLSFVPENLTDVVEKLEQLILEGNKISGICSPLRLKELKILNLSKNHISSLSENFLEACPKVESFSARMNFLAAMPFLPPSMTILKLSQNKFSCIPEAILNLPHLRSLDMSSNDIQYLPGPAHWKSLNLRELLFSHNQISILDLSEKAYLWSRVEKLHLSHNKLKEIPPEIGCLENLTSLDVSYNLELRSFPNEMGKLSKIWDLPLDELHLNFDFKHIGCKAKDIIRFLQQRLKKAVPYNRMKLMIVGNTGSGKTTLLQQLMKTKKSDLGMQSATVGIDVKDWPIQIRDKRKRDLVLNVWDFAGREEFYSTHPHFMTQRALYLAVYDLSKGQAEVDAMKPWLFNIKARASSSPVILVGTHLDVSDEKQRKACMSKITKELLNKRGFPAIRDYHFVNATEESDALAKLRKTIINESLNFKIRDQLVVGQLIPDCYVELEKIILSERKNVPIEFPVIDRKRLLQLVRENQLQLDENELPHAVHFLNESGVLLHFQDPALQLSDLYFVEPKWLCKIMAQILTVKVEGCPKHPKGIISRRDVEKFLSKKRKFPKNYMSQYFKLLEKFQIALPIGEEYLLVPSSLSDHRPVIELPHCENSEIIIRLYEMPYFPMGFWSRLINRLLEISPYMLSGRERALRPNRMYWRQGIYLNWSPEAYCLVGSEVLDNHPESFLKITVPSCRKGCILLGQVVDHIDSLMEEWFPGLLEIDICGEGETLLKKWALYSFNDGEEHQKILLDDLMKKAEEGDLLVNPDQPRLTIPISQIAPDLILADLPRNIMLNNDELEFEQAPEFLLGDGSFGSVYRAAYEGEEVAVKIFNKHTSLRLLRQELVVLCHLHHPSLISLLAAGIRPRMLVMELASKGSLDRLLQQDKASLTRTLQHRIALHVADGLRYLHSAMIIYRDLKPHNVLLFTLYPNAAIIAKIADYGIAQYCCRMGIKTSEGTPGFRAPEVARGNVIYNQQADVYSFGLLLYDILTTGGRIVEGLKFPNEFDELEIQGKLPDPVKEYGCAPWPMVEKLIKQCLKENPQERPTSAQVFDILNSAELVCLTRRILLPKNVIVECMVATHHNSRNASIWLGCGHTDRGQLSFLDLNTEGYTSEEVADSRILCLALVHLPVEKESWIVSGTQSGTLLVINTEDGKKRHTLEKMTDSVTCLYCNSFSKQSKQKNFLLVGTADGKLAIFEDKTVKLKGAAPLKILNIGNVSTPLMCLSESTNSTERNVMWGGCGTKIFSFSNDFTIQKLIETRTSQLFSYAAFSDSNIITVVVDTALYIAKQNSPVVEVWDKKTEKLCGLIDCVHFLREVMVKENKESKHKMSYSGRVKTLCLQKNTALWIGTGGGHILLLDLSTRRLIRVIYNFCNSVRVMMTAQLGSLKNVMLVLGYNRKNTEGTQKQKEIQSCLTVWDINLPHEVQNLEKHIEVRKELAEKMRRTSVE

| IC50 [1, 10] | SMILES | IC50 [2] | concentration at 30 min [4] | concentration at 1 h [4] | also measured |
| --- | --- | --- | --- | --- | --- |
| 1000 to 5000 nM | CC(=O)NC1(C)CCN(c2ncnc3[nH]cc(-c4cccc(Cl)c4)c23)CC1 [Compound 124, N-(1-(5-(3-chlorophenyl)-7H-pyrrolo[2,3-d]pyrimidin-4-yl)-4-methylpiperidin-4-yl)acetamide] | 1000 to 5000 nM | – | – | – |
| < 1000 nM | CC(CNc1ncnc2[nH]cc(-c3cccc(Cl)c3)c12)C(N)=O (stereo not drawn) [Compound 125, 3-((5-(3-chlorophenyl)-7H-pyrrolo[2,3-d]pyrimidin-4-yl)amino)-2-methylpropanamide] | < 1000 nM | – | – | – |
| 1000 to 5000 nM | CC(CNc1ncnc2[nH]cc(-c3cccc(Cl)c3)c12)C(=O)O (stereo not drawn) [Compound 126, 3-((5-(3-chlorophenyl)-7H-pyrrolo[2,3-d]pyrimidin-4-yl)amino)-2-methylpropanoic acid] | 1000 to 5000 nM | – | – | – |
| < 1000 nM | CC(CN)CNc1ncnc2[nH]cc(-c3cccc(Cl)c3)c12 (stereo not drawn) [Compound 127, N^1-(5-(3-chlorophenyl)-7H-pyrrolo[2,3-d]pyrimidin-4-yl)-2-methylpropane-1,3-diamine] | < 1000 nM | – | – | – |
| < 1000 nM | CC(=O)NCC(C)CNc1ncnc2[nH]cc(-c3cccc(Cl)c3)c12 (stereo not drawn) [Compound 129, N-(3-((5-(3-chlorophenyl)-7H-pyrrolo[2,3-d]pyrimidin-4-yl)amino)-2-methylpropyl)acetamide] | < 1000 nM | – | – | – |
| 1000 to 5000 nM | CC(=O)NCC(C)CNc1ncnc2[nH]cc(-c3ccccc3)c12 (stereo not drawn) [Compound 130, N-(2-methyl-3-((5-phenyl-7H-pyrrolo[2,3-d]pyrimidin-4-yl)amino)propyl)acetamide] | 1000 to 5000 nM | – | – | – |
| > 5000 nM | CNCC(C)CNc1ncnc2[nH]cc(-c3cccc(Cl)c3)c12 (stereo not drawn) [Compound 131, N^1-(5-(3-chlorophenyl)-7H-pyrrolo[2,3-d]pyrimidin-4-yl)-N^3,2-dimethylpropane-1,3-diamine] | > 5000 nM | – | – | – |

Second part, the compound before the results:

| SMILES | IC50 [1, 10] | IC50 [2] | concentration at 30 min [4] | concentration at 1 h [4] | also measured |
| --- | --- | --- | --- | --- | --- |
| Cc1ccccc1-c1c[nH]c2ncnc(N3CCOCC3)c12 [Compound 2, 4-(5-(o-Tolyl)-7H-pyrrolo[2,3-d]pyrimidin-4-yl)morpholine] | – | > 5000 nM | – | – | IC50 [1]: 1000 to 5000 nM; relative expression level of phosphorylated MOB1 [3]: significant reduction |
| Cc1cccc(-c2c[nH]c3ncnc(N4CCOCC4)c23)c1 [Compound 5, 4-(5-(m-Tolyl)-7H-pyrrolo[2,3-d]pyrimidin-4-yl)morpholine] | – | < 1000 nM | 2.8 µM | 7.3 µM | IC50 [5, 9]: < 1000 nM; IC50 [6]: ≤ 1000 nM |
| Clc1cccc(-c2c[nH]c3ncnc(N4CCCCC4)c23)c1 [Compound 15, 5-(3-Chlorophenyl)-4-(piperidin-1-yl)-7H-pyrrolo[2,3-d]pyrimidine] | – | < 1000 nM | 3.7 µM | 6.5 µM | ΔTm at 10 µM [7]: 8.3 °C; IC50 [5]: 1000 to 5000 nM; LRRK2: IC50 [6]: B (B: IC50 is >2000 nM and <1000 nM) |
| CC1(N)CCN(c2ncnc3[nH]cc(-c4cccc(Cl)c4)c23)CC1 [Compound 102, 1-(5-(3-chlorophenyl)-7H-pyrrolo[2,3-d]pyrimidin-4-yl)-4-methylpiperidin-4-amine] | – | < 1000 nM | 1.4 µM | 15.9 µM | – |
| CNC1CCN(c2ncnc3[nH]cc(-c4cccc(Cl)c4)c23)CC1 [Compound 106, 1-(5-(3-chlorophenyl)-7H-pyrrolo[2,3-d]pyrimidin-4-yl)-N-methylpiperidin-4-amine] | – | – | 2.2 µM | 7.8 µM | IC50 [6]: ≥ 2000 nM |
| CN(CCO)c1ncnc2[nH]cc(-c3cccc(Cl)c3)c12 [Compound 108, 2-((5-(3-chlorophenyl)-7H-pyrrolo[2,3-d]pyrimidin-4-yl)(methyl)amino)ethan-1-ol] | < 1000 nM | < 1000 nM | 7.3 µM | 0.9 µM | IC50 [8]: < 1000 nM; IC50 [5, 9]: < 1000 nM; LRRK2: IC50 [6]: B (B: IC50 is >2000 nM and <1000 nM); relative expression level of phosphorylated MOB1 [3]: significant reduction |
| OCCCNc1ncnc2[nH]cc(-c3cccc(Cl)c3)c12 [Compound 119, 3-((5-(3-chlorophenyl)-7H-pyrrolo[2,3-d]pyrimidin-4-yl)amino)propan-1-ol] | – | < 1000 nM | 4.5 µM | 0.003 µM | IC50 [5, 9]: < 1000 nM; IC50 [6]: ≥ 2000 nM |
| CC(CO)CN(C)c1ncnc2[nH]cc(-c3cccc(Cl)c3)c12 (stereo not drawn) [Compound 121, 3-((5-(3-chlorophenyl)-7H-pyrrolo[2,3-d]pyrimidin-4-yl)(methyl)amino)-2-methylpropan-1-ol] | < 1000 nM | < 1000 nM | 1.8 µM | 0.006 µM | IC50 [8]: < 1000 nM; IC50 [5, 9]: < 1000 nM; IC50 [6]: ≥ 2000 nM; relative expression level of phosphorylated MOB1 [3]: significant reduction |
| CC(=O)N(C)CC(C)CN(C)c1ncnc2[nH]cc(-c3cccc(Cl)c3)c12 (stereo not drawn) [Compound 128] | 1000 to 5000 nM | < 1000 nM | – | – | – |
